The text below walks through data of PubChem BioAssay (NCI).

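Grown in 96-well plates, cells were treated for 48 hours with each compound at five concentrations. Insufficient inhibition: endpoint recorded as highest concentration tested. At the TGI there is no net growth.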

Holding throughout (test): growth of human tumour cells (NCI), 48 h
For test [1], the system named is A549 NSCLC.
The subject of test [2] is M14 melanoma.
In test [3] the test system is OVCAR-3 ovarian.
The subject of test [4] is COLO 205 colon.
Test [5] relates to MDA-N.
The test system of test [6] is SN12C renal.
The test system of test [7] is HCT-15 colon.
Test [8] deals with MALME-3M melanoma.
Test [9] deals with NCI-H522 lung.
Test [10] relates to RPMI-8226 leukemia.
The subject of test [11] is OVCAR-5 ovarian.
Test [12] deals with CAKI-1 renal.

On to `CC(=O)/C(=C\n1c(=S)[nH]c2ccc([N+](=O)[O-])cc21)C(=O)Nc1ccccc1C`, for which the TGI in test [1], in test [2], in test [3], in test [4], in test [5] and in test [6] was over 100 µM in each case. For the same compound, the TGI in test [7], in [8], in [9], in [10], in [11] and in test [12] was over 100 µM each time.

For the compound `CCOP(=O)(OCC)OC1CC(n2cnc3c(N(CC)CC)ncnc32)OC1CO[Si](C)(C)C(C)(C)C` (stereo not drawn), the TGI in [1] was 29.8 µM; in [2] it was 33.1 µM; in test [3], 44.9 µM; in test [4], 32.8 µM; in test [5], 32 µM; in [6], 37.8 µM. The TGI in test [7] is 45 µM; in [8], 41.4 µM; in test [9], 27.6 µM; in test [10] it was over 100 µM; in [11], 37.1 µM; in test [12] it was 31.5 µM.

In the case of `O=C1c2ccccc2-c2ccc(N(Cc3ccc(Br)cc3)Cc3ccc(Br)cc3)cc21`, the TGI in test [1], in test [2], in test [3], in [4], in test [5] and in test [6] was over 100 µM in each case. The TGI in [7], in [8], in [9], in test [10], in test [11] and in test [12] was over 100 µM in each case.

Turning to `COc1ccc(-c2c(C(=O)Nc3ccccc3)c(-c3ccccc3)n(C3OC(CO)C(O)C(O)C3O)c(=S)c2C#N)cc1` (stereo not drawn), the TGI in test [1], in test [2], in [3], in test [4], in test [5] and in test [6] was over 100 µM in each case. Further, the TGI in test [7], in [8], in test [9], in test [10], in test [11] and in test [12] was over 100 µM each time.

For the compound `COC1(CCO)CC=CCC1(CCO)OC` (stereo not drawn), the TGI in [1], in test [2], in test [3], in test [4], in test [5] and in test [6] was over 100 µM each time. For the same compound, the TGI in test [7], in [8], in test [9], in test [10], in [11] and in [12] was over 100 µM in each case.

For the compound `CSc1nc2ccccc2c(=O)n1-c1cccc(C)c1`, the TGI was over 100 µM in test [1]; over 100 µM in test [2]; over 100 µM in test [3]; over 100 µM in [4]; 72.5 µM in [5]; over 100 µM in test [6]. For the same compound, the TGI in test [7], in test [8], in test [9], in test [10], in test [11] and in [12] was over 100 µM throughout.

As to `CCCNc1c(Cl)cc(Cl)c2[nH]c3ccccc3c(=O)c12`, the TGI in [1], in [2], in test [3], in test [4], in test [5] and in test [6] was over 100 µM in each case. For the same compound, the TGI is over 100 µM in [7]; 75.3 µM in [8]; over 100 µM in test [9]; over 100 µM in test [10]; over 100 µM in test [11]; over 100 µM in test [12].

`COc1ccc(C(c2ccccc2)N2C(=O)CCC2C(=O)O)cc1OC` (stereo not drawn): the TGI in [1], in [2], in test [3], in test [4], in test [5] and in test [6] was over 100 µM each time. Also, the TGI in test [7], in test [8], in test [9], in [10], in test [11] and in test [12] was over 100 µM in each case.

As for `CCCCC[C@H]1CC=CC(=O)O1`, the TGI in test [1] worked out at 60.5 µM; in [2], 26.7 µM; in test [3] it was 21.9 µM; in test [4], 15.1 µM; in test [5], 23 µM; in [6], 23.8 µM. Moreover, the TGI in test [7] came to 20.9 µM; in [8], 33.9 µM; in test [9], 11.8 µM; in [10], 19.3 µM; in test [11], 70 µM; in test [12] it was 10.4 µM.

Regarding `CCC1c2[nH]c3ccccc3c2C[C@H]2C(=O)NC(Cc3ccccc3)C(=O)N12` (stereo partly drawn), the TGI in test [1] is over 100 µM; in test [2], 86.1 µM; in test [3] it was 94.2 µM; in [4] it was 39 µM; in test [5] it was 67.5 µM; in test [6] it was 79.9 µM. In addition, the TGI in test [7] is over 100 µM; in [8], 43.1 µM; in test [9], 46.6 µM; in test [10], 51.3 µM; in test [11] it was 65.7 µM; in test [12], 98.8 µM.

Turning to `Cc1[nH]c2ncn(N)c(=N)c2c1Cc1ccccc1`, the TGI in test [1], in [2], in test [3], in test [4], in test [5] and in [6] was over 100 µM throughout. The TGI in [7], in [8], in test [9], in [10], in test [11] and in test [12] was over 100 µM in each case.

With `Nc1nc(Cl)cc(NCC2(CO)CC(O)C2)n1` (stereo not drawn), the TGI in test [1], in test [3], in test [4], in [5], in test [6] and in test [7] was over 100 µM each time. The TGI in test [8], in test [9], in test [10], in test [11] and in test [12] was over 100 µM each time.

On to `Cc1c(O)c(OC2OC(CO)C(O)C(O)C2O)cc2c1CC[C@@H]1C2(C)C(=O)C[C@]2(C)[C@@H]([C@@](C)(O)C(O)CCC(C)(C)O)[C@H](O)C[C@@]12C` (stereo partly drawn), for which the TGI in test [1], in test [2], in test [3], in test [4], in [5] and in test [6] was over 100 µM throughout. Further, the TGI in test [7], in test [8], in [9], in test [11] and in test [12] was over 100 µM each time.

On to `CN(N=O)C(N)=NC(=O)c1ccccc1`, for which the TGI in test [1], in test [2], in test [3], in test [4], in test [5] and in [7] was over 100 µM in each case. The TGI in [8], in test [9], in test [10], in test [11] and in test [12] was over 100 µM throughout.

In the case of `COc1ccc2[nH]c3c(c2c1)CCc1ccccc1-3`, the TGI in [1], in [2], in test [3], in test [4], in test [5] and in test [6] was over 100 µM each time. Also, the TGI was over 100 µM in test [7]; over 100 µM in test [8]; 79.7 µM in test [9]; over 100 µM in [11]; over 100 µM in test [12].

As for `Brc1ccc(C2(N3CCCCC3)CCCCC2)s1`, the TGI in [1] is over 100 µM; in test [2], 71.4 µM; in [3], over 100 µM; in test [5] it was over 100 µM; in test [6] it was over 100 µM; in test [8], 94 µM. Besides, the TGI in test [9] is over 100 µM; in [10], 39.5 µM; in test [11], over 100 µM; in test [12] it was over 100 µM.

In the case of `N/C(=N/O)c1cn(C2OC(CO)C(O)C2O)c2ncnc(NO)c12` (stereo not drawn), the TGI in test [1] was over 100 µM; in test [2], 2.88 µM; in [4], 0.623 µM; in [5] it was over 100 µM; in [6], over 100 µM; in [7] it was over 100 µM. Moreover, the TGI in [8] was 0.408 µM; in test [9], 0.392 µM; in test [10], 1.86 µM; in [11] it was over 57.7 µM.

Consider `COC(=O)[C@H]1[C@H](OC(=O)[C@@H](OC)c2ccccc2)ON2CC[C@@H](OC(=O)c3ccccc3)[C@H]12`, for which the TGI in test [1], in test [2], in test [4], in [5], in test [6] and in test [7] was over 100 µM throughout. Moreover, the TGI is over 100 µM in [8]; 7.59 µM in [9]; over 100 µM in test [10]; over 100 µM in test [11]; over 100 µM in [12].

`COC(=O)C1CCCCCCCCCCC12SCCCS2` (stereo not drawn): the TGI was 36.7 µM in test [1]; 31 µM in test [2]; 41 µM in [3]; 37.4 µM in [4]; over 100 µM in test [5]; 31.8 µM in test [6]. In addition, the TGI in test [7] is over 100 µM; in [8] it was 37.6 µM; in test [9], 43.5 µM; in test [11], 34.7 µM; in test [12] it was 96.3 µM.

Take `CC(C)(C)OC(=O)N1CCC[C@H]1CSC[C@@H]1CCCN1C(=O)OC(C)(C)C`: the TGI in [1] is 87.3 µM; in test [2] it was 38.2 µM; in [3], 90.3 µM; in [4] it was 30.5 µM; in [5], over 100 µM; in [6] it was over 100 µM. Besides, the TGI in test [7] is 92.4 µM; in test [8] it was 63.5 µM; in test [9], 56 µM; in [11], over 100 µM; in [12], over 100 µM.

On to `COc1ccc(/C=N/Nc2nc3ccccc3c(=O)n2-c2ccccc2)cc1`, for which the TGI in test [1], in test [2], in test [3], in test [4], in test [5] and in [6] was over 100 µM in each case. Moreover, the TGI in test [7], in [8], in test [9], in [11] and in test [12] was over 100 µM each time.

With `CCOC(=O)CC(=O)Nc1c(C(=O)OCC)sc2nc(SC)nc(Nc3ccc(OC)c(OC)c3)c12`, the TGI in [1] was over 100 µM; in test [2] it was over 100 µM; in [3] it was 40.1 µM; in [4], over 100 µM; in [5], over 100 µM; in test [6] it was over 100 µM. Besides, the TGI in test [7] is over 100 µM; in test [8] it was over 100 µM; in [9], 34.1 µM; in test [11], over 100 µM; in test [12] it was over 100 µM.

For the compound `Cc1ccc(CCCC(=O)O)cc1C`, the TGI in test [1], in test [2], in test [3], in test [5], in [6] and in test [7] was over 100 µM each time. Besides, the TGI in test [8], in test [9], in [10], in [11] and in [12] was over 100 µM throughout.

As for `O=C1NC(c2ccccc2)C1N(Cc1ccccc1)Cc1ccccc1` (stereo not drawn), the TGI in test [2], in test [3], in test [4], in test [5], in [6] and in [7] was over 100 µM throughout. Also, the TGI in [8], in [9], in [10], in test [11] and in test [12] was over 100 µM in each case.
